The values that follow come from patent US9371331B2, “Modulators of methyl modifying enzymes, compositions and uses thereof” (Constellation Pharmaceuticals, Inc., priority 2012, dated 2016).

A word on the IC50: it is the point on the concentration scale where inhibition reaches its midpoint. For orientation: EC50 means the midpoint of the concentration-response curve.

Counter-ions that a name gives are not always drawn. Like-named read-outs stand apart in the source and are kept apart here. Bounds are passed on as bounds.

One experiment concerns the target EZH2 (rPRC2) (Homo sapiens, UniProt Q15910). Kind of experiment: EZH2 assay: rPRC2, biotinylated oligonucleosomes, 3H SAM methyl transfer (FlashPlate scintillation). It counts as biochemical. Conditions: biotinylated oligonucleosome substrate.
Experiment [1] has as its system H3K27me3 mark in HeLa cells. Briefly: H3K27me3 Alpha Hela Assay (AlphaLISA). It counts as cell-based. Conditions: 72 hrs; for EC50: read-out: H3K27me3_Alpha_HeLa_ (EC50). The procedure, abridged:
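HeLa cells (1,000/well) were treated with ten 3-fold compound doses for 72 h at 37 °C. After histone extraction, H3K27me3 was detected by AlphaLISA (anti-K27me3 acceptor beads, biotinylated anti-H3, streptavidin donor), with viability measured on a duplicate plate. Data were normalized to DMSO and curve-fitted.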

For experiment [2], the system named is H3K27me3 mark in HeLa cells. Briefly: H3K27me3 MSD Hela Assay. Conditions: read-out: H3K27me3_MSD_HeLa_ (EC50). It counts as cell-based. The procedure, abridged:
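HeLa cells treated with compound at various concentrations for 96 h at 37 °C, then lysed with high-salt extraction. H3K27me3 measured by MSD electrochemiluminescence immunoassay on total-H3 capture plates. Dose-dependent inhibition normalised to DMSO wells and fitted to curves.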

A further experiment addresses Y641N EZH2 (Homo sapiens, UniProt Q15910, Y641N). Kind of experiment: Y641N EZH2 assay: as EZH2 assay, with reconstituted H3K27Me2 oligonucleosomes as substrate. Format: biochemical.
[3] abbreviates: EZH2 IC50, wild-type EZH2 (rPRC2).
The mark [4] stands for this setting: Y641N EZH2 IC50, Y641N mutant EZH2, H3K27Me2 oligonucleosome substrate.
Where [5] appears, read: wild-type EZH2 (rPRC2), read-out: EZH2 IC50.
The mark [6] stands for this setting: Y641N mutant EZH2, H3K27Me2 oligonucleosome substrate, read-out: Y641N EZH2 IC50.

EZH2 (rPRC2), sequence (Q15910 whole entry): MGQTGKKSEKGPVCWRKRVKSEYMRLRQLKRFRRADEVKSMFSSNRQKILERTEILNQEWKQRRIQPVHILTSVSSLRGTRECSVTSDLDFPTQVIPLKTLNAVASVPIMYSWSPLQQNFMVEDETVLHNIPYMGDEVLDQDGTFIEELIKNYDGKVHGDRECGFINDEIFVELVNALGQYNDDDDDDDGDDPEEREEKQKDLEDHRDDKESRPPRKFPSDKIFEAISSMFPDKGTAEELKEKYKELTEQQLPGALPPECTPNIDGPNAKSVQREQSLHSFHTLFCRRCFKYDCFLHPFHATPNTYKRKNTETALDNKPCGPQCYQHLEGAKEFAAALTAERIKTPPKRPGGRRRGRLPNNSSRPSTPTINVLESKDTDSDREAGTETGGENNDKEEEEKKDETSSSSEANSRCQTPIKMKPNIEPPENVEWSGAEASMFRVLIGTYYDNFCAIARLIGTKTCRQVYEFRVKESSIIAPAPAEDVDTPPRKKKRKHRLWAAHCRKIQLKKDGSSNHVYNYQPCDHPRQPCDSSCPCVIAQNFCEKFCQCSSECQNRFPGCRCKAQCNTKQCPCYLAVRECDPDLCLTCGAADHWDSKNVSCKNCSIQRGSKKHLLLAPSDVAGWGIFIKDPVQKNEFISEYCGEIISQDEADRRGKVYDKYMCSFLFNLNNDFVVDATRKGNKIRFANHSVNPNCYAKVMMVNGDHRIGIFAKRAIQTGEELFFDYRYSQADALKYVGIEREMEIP
EZH2 (rPRC2), sequence (O75530 whole entry partner): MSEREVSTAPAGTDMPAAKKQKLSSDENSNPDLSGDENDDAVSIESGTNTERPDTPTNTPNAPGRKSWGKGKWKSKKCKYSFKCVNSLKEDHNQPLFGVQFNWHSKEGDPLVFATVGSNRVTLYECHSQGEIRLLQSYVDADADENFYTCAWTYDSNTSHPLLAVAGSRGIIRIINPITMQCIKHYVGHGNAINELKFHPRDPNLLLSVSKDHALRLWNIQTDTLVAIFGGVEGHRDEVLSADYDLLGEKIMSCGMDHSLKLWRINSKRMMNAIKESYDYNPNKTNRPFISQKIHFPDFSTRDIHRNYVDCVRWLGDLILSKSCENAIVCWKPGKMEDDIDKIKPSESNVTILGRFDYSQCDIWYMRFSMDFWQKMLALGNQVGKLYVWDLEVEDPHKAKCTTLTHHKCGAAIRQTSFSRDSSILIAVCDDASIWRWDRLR
EZH2 (rPRC2), sequence (Q15022 whole entry partner): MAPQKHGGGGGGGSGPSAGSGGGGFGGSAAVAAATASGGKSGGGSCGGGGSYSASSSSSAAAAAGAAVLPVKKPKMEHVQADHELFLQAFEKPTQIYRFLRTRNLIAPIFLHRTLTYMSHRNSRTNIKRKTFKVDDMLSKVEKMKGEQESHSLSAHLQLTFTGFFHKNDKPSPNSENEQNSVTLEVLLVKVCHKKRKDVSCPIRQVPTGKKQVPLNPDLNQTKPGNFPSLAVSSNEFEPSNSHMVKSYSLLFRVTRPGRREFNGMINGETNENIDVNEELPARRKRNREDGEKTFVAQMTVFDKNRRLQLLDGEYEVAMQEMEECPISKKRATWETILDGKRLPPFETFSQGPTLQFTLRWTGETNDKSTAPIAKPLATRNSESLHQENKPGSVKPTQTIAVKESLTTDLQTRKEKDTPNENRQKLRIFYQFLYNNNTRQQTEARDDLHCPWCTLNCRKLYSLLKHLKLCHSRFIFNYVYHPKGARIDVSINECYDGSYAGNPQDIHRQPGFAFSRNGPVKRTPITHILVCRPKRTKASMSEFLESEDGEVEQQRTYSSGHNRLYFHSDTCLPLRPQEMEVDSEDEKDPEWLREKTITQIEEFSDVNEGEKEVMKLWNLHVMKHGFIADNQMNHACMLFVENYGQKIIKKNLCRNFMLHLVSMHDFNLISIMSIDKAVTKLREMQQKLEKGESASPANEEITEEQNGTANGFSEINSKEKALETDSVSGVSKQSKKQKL
Y641N EZH2, sequence (Q15910 whole entry Y641N): as the sequence (Q15910 whole entry) above, with Y641N counted along it
Y641N EZH2, sequence (O75530 whole entry partner): as the sequence (O75530 whole entry partner) above
Y641N EZH2, sequence (Q15022 whole entry partner): as the sequence (Q15022 whole entry partner) above

In the case of `COc1cc(C)[nH]c(=O)c1CNC(=O)c1c(C)n(C(C)C(C)OC)c2ccccc12` (racemic) [Compound 294, (±)-N-((4-methoxy-6-methyl-2-oxo-1,2-dihydropyridin-3-yl)methyl)-1-(3-methoxybutan-2-yl)-2-methyl-1H-indole-3-carboxamide], the IC50 against EZH2 (rPRC2) (setting [3]) and at Y641N EZH2 (setting [4]) was < 100 nM throughout. The 50% effective concentration (EC50) in experiment [1] (Homo sapiens) is < 400 nM; in experiment [2] (Homo sapiens, HeLa, 96 h), < 400 nM.

For `COc1cc(C)[nH]c(=O)c1CNC(=O)c1c(C)n(C(C)c2ccccc2)c2ccccc12` (single isomer, unassigned) [Compound 114, (R or S)N-((4-methoxy-6-methyl-2-oxo-1,2-dihydropyridin-3-yl)methyl)-2-methyl-1-(1-phenylethyl)-1H-indole-3-carboxamide], the half-inhibitory concentration (IC50) at EZH2 (rPRC2) (setting [3]) and against Y641N EZH2 (setting [4]) was < 100 nM in each case. The EC50 in experiment [1] (Homo sapiens) was 400 to 2000 nM; in experiment [2] (Homo sapiens, HeLa, 96 h), < 400 nM.

As for `COCC(C)n1c(C)c(C(=O)NCc2c(OC)cc(C)[nH]c2=O)c2ccccc21` (single isomer, unassigned) [Compound 224, N-((4-methoxy-6-methyl-2-oxo-1,2-dihydropyridin-3-yl)methyl)-1-(1-methoxypropan-2-yl)-2-methyl-1H-indole-3-carboxamide], the IC50 is < 100 nM on EZH2 (rPRC2) (read-out: EZH2 IC50, wild-type EZH2 (rPRC2)) and < 100 nM against Y641N EZH2 (setting [4]). Further, the concentration giving a half-maximal response (EC50) in experiment [1] (Homo sapiens) is < 400 nM; in experiment [2] (Homo sapiens, HeLa, 96 h), < 400 nM.

Take `COc1cc(C)[nH]c(=O)c1CNC(=O)c1c(C)n(C(C)C(C)OC)c2ncccc12` (single isomer, unassigned) [Compound 261, N-((4-methoxy-6-methyl-2-oxo-1,2-dihydropyridin-3-yl)methyl)-1-((2R or 2S, 3R or 3S)-3-methoxybutan-2-yl)-2-methyl-1H-pyrrolo[2,3-b]pyridine-3-carboxamide]: the 50% inhibitory concentration (IC50) against EZH2 (rPRC2) (setting [3]) and against Y641N EZH2 (setting [4]) was < 100 nM throughout. Also, the EC50 in experiment [1] (Homo sapiens) is < 400 nM; in experiment [2] (Homo sapiens, HeLa, 96 h) it was < 400 nM.

As to `COc1cc(C)[nH]c(=O)c1CNC(=O)c1c(C)n(C(C)C2CCOCC2)c2ncccc12` (single isomer, unassigned) [Compound 288, (R or S)-N-((4-Methoxy-6-methyl-2-oxo-1,2-dihydropyridin-3-yl)methyl)-2-methyl-1-(1-(tetrahydro-2H-pyran-4-yl)ethyl)-1H-pyrrolo[2,3-b]pyridine-3-carboxamide], the IC50 against EZH2 (rPRC2) (setting [3]) and at Y641N EZH2 (setting [4]) was < 100 nM each time. In addition, the EC50 in experiment [1] (Homo sapiens) was < 400 nM; in experiment [2] (Homo sapiens, HeLa, 96 h), 400 to 2000 nM.

`COc1cc(C)[nH]c(=O)c1CNC(=O)c1c(C)n(C(C)C2CCOCC2)c2ccccc12` (single isomer, unassigned) [Compound 298, (R or S)-N-((4-methoxy-6-methyl-2-oxo-1,2-dihydropyridin-3-yl)methyl)-2-methy1-1-(1-(tetrahydro-2H-pyran-4-yl)ethyl)-1H-indole-3-carboxamide]: the 50% effective concentration (EC50) in experiment [1] (Homo sapiens) is < 400 nM; in experiment [2] (Homo sapiens, HeLa, 96 h), < 400 nM.

Consider `COc1cc(C)[nH]c(=O)c1CNC(=O)c1c(C)n(C(C)C2CCOCC2)c2cc(F)ccc12` (single isomer, unassigned) [Compound 300, (R or S)-6-fluoro-N-((4-methoxy-6-methyl-2-oxo-1,2-dihydropyridin-3-yl)methyl)-2-methyl-1-(1-(tetrahydro-2H-pyran-4-yl)ethyl)-1 H-indole-3-carboxamide], for which the half-inhibitory concentration (IC50) against EZH2 (rPRC2) (setting [3]) and against Y641N EZH2 (setting [4]) was < 100 nM throughout. Further, the EC50 is < 400 nM in experiment [1] (Homo sapiens) and < 400 nM in experiment [2] (Homo sapiens, HeLa, 96 h).

As for `COc1cc(C)[nH]c(=O)c1CNC(=O)c1c(C)n(C(C)C2CCNCC2)c2ccccc12` (single isomer, unassigned) [Compound 326, (R or S)—N-((4-methoxy-6-methyl-2-oxo-1,2-dihydropyridin-3-yl)methyl)-2-methyl-1-(1-(piperidin-4-yl)ethyl)-1H-indole-3-carboxamide hydrochloride], the IC50 on EZH2 (rPRC2) (setting [3]) and against Y641N EZH2 (setting [4]) was < 100 nM throughout. The concentration giving a half-maximal response (EC50) in experiment [1] (Homo sapiens) is 400 to 2000 nM; in experiment [2] (Homo sapiens, HeLa, 96 h), 400 to 2000 nM.

As to `Cc1cc(C)c(CNC(=O)c2c(C)n(C(C)c3cccc(C#N)c3)c3ccccc23)c(=O)[nH]1` (centres unmarked) [Compound 187, 1-(1-(3-cyanophenyl)ethyl)-N-((4,6-dimethyl-2-oxo-1,2-dihydropyridin-3-yl)methyl)-2-methyl-1H-indole-3-carboxamide], the IC50 against EZH2 (rPRC2) (setting [3]) was < 100 nM; on Y641N EZH2 (setting [4]), 100 to 1000 nM. Further, the EC50 lay within 400 to 2000 nM in experiment [1] (Homo sapiens) and 400 to 2000 nM in experiment [2] (Homo sapiens, HeLa, 96 h).

Regarding `COCC(C)(C)n1c(C)c(C(=O)NCc2c(OC)cc(C)[nH]c2=O)c2ccccc21` [Compound 338, 1-(1-methoxy-2-methylpropan-2-yl)-N-((4-methoxy-6-methyl-2-oxo-1,2-dihydropyridin-3-yl)methyl)-2-methyl-1H-indole-3-carboxamide], the IC50 against EZH2 (rPRC2) (setting [3]) was < 100 nM; against Y641N EZH2 (setting [4]), 100 to 1000 nM. In addition, in experiment [1] (Homo sapiens), the concentration giving a half-maximal response (EC50) was 400 to 2000 nM.

For `COc1cc(C)[nH]c(=O)c1CNC(=O)c1c(C)n(-c2cccc3c2CCCN3)c2ccccc12` [Compound 339, N-((4-methoxy-6-methyl-2-oxo-1,2-dihydropyridin-3-yl)methyl)-2-methyl-1-(1,2,3,4-tetrahydroquinolin-5-yl)-1H-indole-3-carboxamide], the IC50 at EZH2 (rPRC2) (setting [5]) and at Y641N EZH2 (setting [6]) was < 100 nM throughout. Moreover, in experiment [1] (Homo sapiens), the concentration for a half-maximal effect (EC50) was < 400 nM.

With `COc1cc(C)[nH]c(=O)c1CNC(=O)c1c(C)n(C(C)C2CCN(S(C)(=O)=O)CC2)c2ncncc12` (centres unmarked) [Compound 370], the concentration for half-maximal inhibition (IC50) on EZH2 (rPRC2) (setting [5]) and at Y641N EZH2 (setting [6]) was < 100 nM each time. Moreover, the “H3K27me3_Alpha_HeLa_ (EC50)” value in experiment [1] is “*(3.33 μM)”.

For `COc1cc(C)[nH]c(=O)c1CNC(=O)c1c(C)n(-c2cccc3c2CCCN3S(C)(=O)=O)c2ccccc12` [Compound 371, N-((4-methoxy-6-methyl-2-oxo-1,2-dihydropyridin-3-yl)methyl)-2-methyl-1-(1-(methylsulfonyl)-1,2,3,4-tetrahydroquinolin-5-yl)-1H-indole-3-carboxamide], the 50% inhibitory concentration (IC50) at EZH2 (rPRC2) (setting [5]) and at Y641N EZH2 (setting [6]) was < 100 nM each time. The “H3K27me3_Alpha_HeLa_ (EC50)” value in experiment [1] is recorded as “*(3.33 μM)”.

In the case of “(±)-1-(1-(4,4-difluorocyclohexyl)ethyl)-N-((4-methoxy-6-methyl-2-oxo-1,2-dihydropyridin-3-yl)methyl)-2-methyl-1H-indole-3-carboxamide [Compound 304]”, the IC50 on EZH2 (rPRC2) (setting [5]) and at Y641N EZH2 (setting [6]) was < 100 nM each time. In addition, the EC50 in experiment [1] is < 400 nM; in experiment [2] (HeLa cells, MSD, 96 hours) it was < 400 nM.
